Laboratory results from patent US8378117B2 (priority 2005, dated 2013).
Like-named read-outs stand apart in the source and are kept apart here.

Columns and labels:
[1] = biological target: T1, CB1 receptor (Homo sapiens, UniProt P21554); assay: Binding assay for CB1 agonists or inverse agonists (SK-N-MC membranes, [3H]-CP-55,940); details: for inhibition at 0.5 µM: read-out: CB1 receptor binding percent inhibition, test concentration 0.5 μM (footnote 10); for inhibition at 1 µM: read-out: CB1 receptor binding percent inhibition, test concentration 1 μM (footnote 1)
T1 construct: expressed in transfected cells
Protocol: (§1) The human CB1 and CB2 receptors were stably expressed in SK-N-MC cells transfected with pcDNA3 CB-1 (human) or pcDNA3 CB-2 (human). The cells were grown in T-180 cell culture flasks under standard cell culture conditions at 37° C. in a 5% CO2 atmosphere. The cells were harvested by trysinization and homogenized in a homogenization buffer (10 mM Tris, 0.2 mM MgCl2, 5 mM KCl, with protease inhibitors aprotinin, leupeptin, pepstatin A and bacitracin) and centrifuged (2000 g). The supernatant was then centrifuged in 2M sucrose (31,300 g) to produce a semi-purified membrane pellet. The pellet was resuspended in homogenization and stored at −80° C.
(§2) On the day of the assay, the pellet was thawed on ice and diluted in assay buffer (50 mM Tris-HCl, 5 mM MgCl2, 2.5 mM EDTA, 0.5 mg/mL fatty acid free bovine serum aldumin, pH 7.5). The diluted membrane pellet was added with buffer, either a test compound or vehicle standard and the radioligand [H]^3+-CP-55,940 (0.2 mM) to the wells of a 96-well polypropylene plate. Non-specific binding was measured in wells containing WIN 55,212 (10 uM). The plate was covered and incubated for 90 minutes at 30° C. The contents were then aspirated onto a Packard Unifilter GF/C filter bottom plate prewet with 0.5% polyethyleneimine. The wells of the polypropylene plate were rinsed and aspirated seven times with a 0.9% saline-0.5% Tween 20 solution. The Unifilter plate was dried, a scintillation cocktail was added to each well and the counts representing binding were quantitated in a TopCount scintillation counter.
(§3) For compounds tested, an IC50 binding value was obtained from percent inhibition studies in which various test concentrations were used. The binding value was calculated by linear regression.

[2] = biological target: T2, CB2 receptor (Homo sapiens, UniProt P34972); assay: Binding assay for CB2 agonists or inverse agonists (SK-N-MC membranes, [3H]-CP-55,940); details: for CB2 receptor binding percent inhibition: test concentration not stated
T2 construct: expressed in transfected cells
Protocol: as §1
as §2, with “The diluted membrane pellet was added with buffer, either a test compound or vehicle standard and the radioligand [H]^3+-CP-55,940 (0.2 mM) to the wells of a 96-well polypropylene plate. Non-specific binding was measured in wells containing WIN 55,212 (10 uM).” left out
as §3

[3] = Cannabinoid CB1 Receptor Binding IC50, calculated by linear regression from percent inhibition at various test concentrations

T1 sequence (P21554 whole entry): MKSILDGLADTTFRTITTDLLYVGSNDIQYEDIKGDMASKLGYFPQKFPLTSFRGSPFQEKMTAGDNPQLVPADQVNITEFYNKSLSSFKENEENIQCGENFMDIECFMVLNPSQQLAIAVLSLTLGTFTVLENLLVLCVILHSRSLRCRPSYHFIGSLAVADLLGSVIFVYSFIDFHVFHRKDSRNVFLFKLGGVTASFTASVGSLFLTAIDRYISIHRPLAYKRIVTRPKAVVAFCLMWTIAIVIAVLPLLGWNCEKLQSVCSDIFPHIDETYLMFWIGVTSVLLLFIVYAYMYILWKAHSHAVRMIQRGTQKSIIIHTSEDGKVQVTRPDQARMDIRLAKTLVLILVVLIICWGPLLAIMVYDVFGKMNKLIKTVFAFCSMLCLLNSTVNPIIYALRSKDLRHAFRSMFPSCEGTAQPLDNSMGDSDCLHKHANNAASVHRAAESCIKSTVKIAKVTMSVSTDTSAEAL
T2 sequence (P34972 whole entry): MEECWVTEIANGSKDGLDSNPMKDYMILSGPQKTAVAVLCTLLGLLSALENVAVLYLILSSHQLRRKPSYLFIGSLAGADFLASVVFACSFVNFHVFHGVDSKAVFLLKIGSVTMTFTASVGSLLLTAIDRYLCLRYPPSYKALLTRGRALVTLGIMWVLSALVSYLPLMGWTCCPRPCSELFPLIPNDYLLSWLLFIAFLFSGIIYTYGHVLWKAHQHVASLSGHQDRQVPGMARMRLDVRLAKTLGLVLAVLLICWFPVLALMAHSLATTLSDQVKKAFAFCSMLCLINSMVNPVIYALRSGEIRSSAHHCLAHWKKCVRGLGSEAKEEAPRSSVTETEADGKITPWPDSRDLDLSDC

Row | Compound | inhibition at 1 µM [1] [%] | CB2 receptor binding percent inhibition [2] [%] | further results
1 | O=C(N[C@@H]1c2ccccc2C[C@@H]1O)c1nn(C2CCCCC2)c2c1CCCCC2Cc1ccc(F)cc1 (relative stereo) [Cpd 121, (8S*)-1-cyclohexyl-8-(4-fluoro-benzyl)-1,4,5,6,7,8-hexahydro-cycloheptapyrazole-3-carboxylic acid [(1R,2S)-2-hydroxy-indan-1-yl]-amide] | 80 | 95 | IC50 [1, 3]: 400 nM; inhibition at 0.5 µM [1]: 70%
2 | O=C(N[C@@H]1c2ccccc2C[C@@H]1O)c1nn(C2CCCCC2)c2c1CCCCC2Cc1cccc(F)c1 (single isomer, unassigned) [Cpd 115, (8S*)-1-cyclohexyl-8-(3-fluoro-benzyl)-1,4,5,6,7,8-hexahydro-cycloheptapyrazole-3-carboxylic acid [(1R,2S)-2-hydroxy-indan-1-yl]-amide] |  | 99 | IC50 [1, 3]: 500 nM; inhibition at 0.5 µM [1]: 67%; CB1 receptor binding percent inhibition ([1]; test concentration 1 μM (footnote 1), 1 µM): 79%
3 | O=C(N[C@@H](CO)c1ccccc1)c1nn(C2CCCCC2)c2c1CCCCC2Cc1ccc(F)cc1 (stereo in doubt) [Cpd 67, (8S*)-1-cyclohexyl-8-(4-fluoro-benzyl)-1,4,5,6,7,8-hexahydro-cycloheptapyrazole-3-carboxylic acid [(1R)-2-hydroxy-1-phenyl-ethyl]-amide] | 44 | 55 | 
4 | Cc1ccc(CC2CCCCc3c(C(=O)NC4C5(C)CCC(C5)C4(C)C)nn(-c4ccc(F)cc4)c32)cc1 (stereo not shown) [Cpd 1, 1-(4-fluoro-phenyl)-8-(4-methyl-benzyl)-1,4,5,6,7,8-hexahydro-cycloheptapyrazole-3-carboxylic acid (1,3,3-trimethyl-bicyclo[2.2.1]hept-2-yl)-amide] |  |  | IC50 [1, 3]: 200 nM; IC50 ([2]; Cannabinoid CB2 Receptor Binding IC50, calculated by linear regression from percent inhibition at various test concentrations): 300 nM
5 | CC12CCC(C1)C(C)(C)[C@H]2NC(=O)c1nn(C2CCCCC2)c2c1CCCCC2Cc1ccc(Cl)cc1 (stereo partly drawn) [Cpd 2, 8-(4-chloro-benzyl)-1-cyclohexyl-1,4,5,6,7,8-hexahydro-cycloheptapyrazole-3-carboxylic acid [(2S)-1,3,3-trimethyl-bicyclo[2.2.1]hept-2-yl]-amide] | 21 | 53 | 
6 | CC12CCC(C1)C(C)(C)[C@H]2NC(=O)c1nn(C2CCCCC2)c2c1CCCCC2Cc1cccc(Cl)c1 (stereo partly drawn) [Cpd 4, 8-(3-chloro-benzyl)-1-cyclohexyl-1,4,5,6,7,8-hexahydro-cycloheptapyrazole-3-carboxylic acid [(2S)-1,3,3-trimethyl-bicyclo[2.2.1]hept-2-yl]-amide] | 51 | 36 | 
7 | C[C@H](NC(=O)c1nn(C2CCCCC2)c2c1CCCCC2Cc1ccc(Cl)cc1)c1ccccc1 (stereo partly drawn) [Cpd 5, 8-(4-chloro-benzyl)-1-cyclohexyl-1,4,5,6,7,8-hexahydro-cycloheptapyrazole-3-carboxylic acid [(1S)-1-phenyl-ethyl]-amide] | 22 | 34 | 
8 | C[C@@H](NC(=O)c1nn(C2CCCCC2)c2c1CCCCC2Cc1ccc(Cl)cc1)c1ccccc1 (stereo partly drawn) [Cpd 6, 8-(4-chloro-benzyl)-1-cyclohexyl-1,4,5,6,7,8-hexahydro-cycloheptapyrazole-3-carboxylic acid [(1R)-1-phenyl-ethyl]-amide] | 26 | 4 | 
9 | C[C@H](NC(=O)c1nn(C2CCCCC2)c2c1CCCCC2Cc1cccc(Cl)c1)c1ccccc1 (stereo partly drawn) [Cpd 7, 8-(3-chloro-benzyl)-1-cyclohexyl-1,4,5,6,7,8-hexahydro-cycloheptapyrazole-3-carboxylic acid [(1S)-1-phenyl-ethyl]-amide] | 68 | 12 | IC50 ([1]; calculated by linear regression from percent inhibition at various test concentrations, read-out: Cannabinoid CB1 Receptor Binding IC50): 1100 nM
10 | O=C(NC12CC3CC(CC1C3)C2)c1nn(C2CCCCC2)c2c1CCCCC2Cc1cccc(Cl)c1 (stereo not shown) [Cpd 9, 8-(3-chloro-benzyl)-1-cyclohexyl-1,4,5,6,7,8-hexahydro-cycloheptapyrazole-3-carboxylic acid (hexahydro-2,5-methano-pentalen-3a-yl)-amide] | 18 | 4 | 
11 | CC(NC(=O)c1nn(C2CCCCC2)c2c1CCCCC2Cc1cccc(Cl)c1)C12CC3CC(CC(C3)C1)C2 (stereo not shown) [Cpd 10, 8-(3-chloro-benzyl)-1-cyclohexyl-1,4,5,6,7,8-hexahydro-cycloheptapyrazole-3-carboxylic acid (1-adamantan-1-yl-ethyl)-amide] | 0 | 8 | 
12 | CC12CCC(C1)C(C)(C)[C@H]2NC(=O)c1nn(C2CCCCC2)c2c1CCCCC2Cc1ccccc1Cl (stereo partly drawn) [Cpd 11, 8-(2-chloro-benzyl)-1-cyclohexyl-1,4,5,6,7,8-hexahydro-cycloheptapyrazole-3-carboxylic acid [(2S)-1,3,3-trimethyl-bicyclo[2.2.1]hept-2-yl]-amide] | 17 | 21 | 
13 | O=C(NC1C2CC3CC(C2)CC1C3)c1nn(C2CCCCC2)c2c1CCCCC2Cc1cccc(Cl)c1 (stereo not shown) [Cpd 12, 8-(3-chloro-benzyl)-1-cyclohexyl-1,4,5,6,7,8-hexahydro-cycloheptapyrazole-3-carboxylic acid adamantan-2-ylamide] | 36 | 31 | 
14 | O=C(NC1C2CC3CC(C2)CC1C3)c1nn(C2CCCCC2)c2c1CCCCC2Cc1ccccc1Cl (stereo not shown) [Cpd 13, 8-(2-chloro-benzyl)-1-cyclohexyl-1,4,5,6,7,8-hexahydro-cycloheptapyrazole-3-carboxylic acid adamantan-2-ylamide] | 0 | 14 | 
15 | CC12CCC(C1)C(C)(C)[C@H]2NC(=O)c1nn(-c2ccc(Cl)cc2Cl)c2c1CCCCC2Cc1ccc(Cl)cc1 (stereo partly drawn) [Cpd 14, 8-(4-chloro-benzyl)-1-(2,4-dichloro-phenyl)-1,4,5,6,7,8-hexahydro-cycloheptapyrazole-3-carboxylic acid [(2S)-1,3,3-trimethyl-bicyclo[2.2.1]hept-2-yl]-amide] | 29 | 7 | 
16 | CC12CCC(C1)C(C)(C)[C@H]2NC(=O)c1nn(-c2ccc(Cl)cc2Cl)c2c1CCCCC2Cc1cccc(Cl)c1 (stereo partly drawn) [Cpd 15, 8-(3-chloro-benzyl)-1-(2,4-dichloro-phenyl)-1,4,5,6,7,8-hexahydro-cycloheptapyrazole-3-carboxylic acid [(2S)-1,3,3-trimethyl-bicyclo[2.2.1]hept-2-yl]-amide] | 58 | 54 | 
17 | O=C(NC1C2CC3CC(C2)CC1C3)c1nn(C2CCCCC2)c2c1CCCCC2Cc1ccc(Cl)cc1 (stereo not shown) [Cpd 16, 8-(4-chloro-benzyl)-1-cyclohexyl-1,4,5,6,7,8-hexahydro-cycloheptapyrazole-3-carboxylic acid adamantan-2-ylamide] | 21 | 68 | 
18 | O=C(NC1C2CC3CC(C2)CC1C3)c1nn(-c2ccc(Cl)cc2Cl)c2c1CCCCC2Cc1cccc(Cl)c1 (stereo not shown) [Cpd 17, 8-(3-chloro-benzyl)-1-(2,4-dichloro-phenyl)-1,4,5,6,7,8-hexahydro-cycloheptapyrazole-3-carboxylic acid adamantan-2-ylamide] | 37 | 11 | 
19 | O=C(NC1C2CC3CC(C2)CC1C3)c1nn(-c2ccc(Cl)cc2Cl)c2c1CCCCC2Cc1ccc(Cl)cc1 (stereo not shown) [Cpd 18, 8-(4-chloro-benzyl)-1-(2,4-dichloro-phenyl)-1,4,5,6,7,8-hexahydro-cycloheptapyrazole-3-carboxylic acid adamantan-2-ylamide] | 3 | 23 | 
20 | O=C(NC12CC3CC(CC(C3)C1)C2)c1nn(C2CCCCC2)c2c1CCCCC2Cc1cccc(Cl)c1 (stereo not shown) [Cpd 19, 8-(3-chloro-benzyl)-1-cyclohexyl-1,4,5,6,7,8-hexahydro-cycloheptapyrazole-3-carboxylic acid adamantan-1-ylamide] | 18 | 51 | 
21 | COc1ccc(/C=C2\CCCCc3c(C(=O)N[C@@H]4CCC[C@H]4O)nn(-c4ccc(Cl)cc4Cl)c32)cc1 [Cpd 221, (8E)-1-(2,4-dichloro-phenyl)-8-(4-methoxy-benzylidene)-1,4,5,6,7,8-hexahydro-cycloheptapyrazole-3-carboxylic acid [(1R,2R)-2-hydroxy-cyclopentyl)-amide] |  |  | inhibition at 0.2 µM ([2]; test concentration 0.2 μM (footnote 2), read-out: CB2 receptor binding percent inhibition): 24%
